According to patent US20230053540A1, “TREATMENT OF LIVER INJURY” (Massachusetts Institute of Technology, priority 2019, published 2023):

Test system: hepatocytes
Assay: Seq-Well scRNA-Seq of hepatocytes after APAP overdose (signature scores, DEG vs untreated)
Format: in vivo, mouse
[1] = cluster A96, DEG between treatment (APAP and PH)
[2] = fraction of A96 (APAP, 96 h) hepatocytes expressing the gene
[3] = hepatocyte cluster A96 (APAP, 96 h) vs all other clusters

CC(=O)Nc1ccc(O)cc1 [APAP, acetaminophen]
avg_logFC, gene Decr2 [1]: 0.3018 | avg_logFC, gene Dhdh [1]: 0.2626 | avg_logFC, gene Etfdh [1]: 0.2639 | avg_logFC, gene Etnppl [1]: 0.3154 | avg_logFC, gene F5 [1]: 0.2566 | avg_logFC, gene Fmo1 [1]: 0.265 | avg_logFC, gene G0s2 [1]: 0.2656 | avg_logFC, gene G6pc [1]: 0.2541 | avg_logFC, gene Gabarapl1 [1]: 0.2932 | avg_logFC, gene Gadd45b [1]: 0.2598 | avg_logFC, gene Gas5 [1]: 0.2823 | avg_logFC, gene Gm4952 [1]: 0.2581 | avg_logFC, gene Gsta2 [1]: 0.311 | avg_logFC, gene Gstt3 [1]: 0.3026 | avg_logFC, gene Gyk [1]: 0.3134 | avg_logFC, gene Hmgcl [1]: 0.2744 | avg_logFC, gene Hmgcs1 [1]: 0.3251 | avg_logFC, gene Hpgd [1]: 0.3412 | avg_logFC, gene Hsd17b7 [1]: 0.3028 | avg_logFC, gene Hsd17b10 [1]: 0.2802 | avg_logFC, gene Igfbp1 [1]: 0.2603 | avg_logFC, gene Kif1b [1]: 0.2961 | avg_logFC, gene Lcat [1]: 0.2616 | avg_logFC, gene Mia3 [1]: 0.2604 | avg_logFC, gene Ndufa3 [1]: 0.2743 | avg_logFC, gene Ndufa7 [1]: 0.26 | avg_logFC, gene Nr1i3 [1]: 0.3481 | avg_logFC, gene Oat [1]: 0.4904 | avg_logFC, gene Pon1 [1]: 0.2899 | avg_logFC, gene Por [1]: 0.2867 | avg_logFC, gene Ppp1r3b [1]: 0.251 | avg_logFC, gene Ppp2r5a [1]: 0.3505 | avg_logFC, gene Ptms [1]: 0.2863 | avg_logFC, gene Pxmp4 [1]: 0.2555 | avg_logFC, gene Rdh16 [1]: 0.3477 | avg_logFC, gene Rdx [1]: 0.2566 | avg_logFC, gene Rgn [1]: 0.3686 | avg_logFC, gene Sc4mol [1]: 0.3361 | avg_logFC, gene Slc4a4 [1]: 0.2977 | avg_logFC, gene Slc25a20 [1]: 0.2507 | avg_logFC, gene Slco1a4 [1]: 0.3049 | avg_logFC, gene Snord118 [1]: 0.3782 | avg_logFC, gene Tgoln1 [1]: 0.2809 | avg_logFC, gene Tmed5 [1]: 0.2523 | avg_logFC, gene Tobi [1]: 0.2958 | avg_logFC, gene Tsc22d3 [1]: 0.3363 | avg_logFC, gene Zfp36l1 [1]: 0.2964 | avg_logFC, gene Zfp91 [1]: 0.2775 | pct.1 8430408G22Rik [2]: 0.559 | pct.1 Acot12 [2]: 0.65 | pct.1 Agpat6 [2]: 0.743 | pct.1 Aplp2 [2]: 0.826 | pct.1 Apoc2 [2]: 0.901 | pct.1 Apol7a [2]: 0.559 | pct.1 Aqp9 [2]: 0.801 | pct.1 Arl4a [2]: 0.517 | pct.1 Brap [2]: 0.642 | pct.1 Cd36 [2]: 0.299 | pct.1 Cebpb [2]: 0.585 | pct.1 Cede107 [2]: 0.59 | pct.1 Ces1e [2]: 0.71 | pct.1 Ces1f [2]: 0.895 | pct.1 Cisd1 [2]: 0.781 | pct.1 Cpeb4 [2]: 0.527 | pct.1 Cpox [2]: 0.634 | pct.1 Cxcl12 [2]: 0.635 | pct.1 D4Wsu53e [2]: 0.597 | pct.1 D17Wsu92e [2]: 0.771 | pct.1 Dcxr [2]: 0.735 | pct.1 Dhdh [2]: 0.734 | pct.1 Ech1 [2]: 0.917 | pct.1 Ehhadh [2]: 0.78 | pct.1 Ephx1 [2]: 0.879 | pct.1 Etfdh [2]: 0.811 | pct.1 Etnppl [2]: 0.677 | pct.1 Fmo1 [2]: 0.606 | pct.1 Gclm [2]: 0.865 | pct.1 Hamp2 [2]: 0.203 | pct.1 Hsd17b7 [2]: 0.56 | pct.1 Lcat [2]: 0.886 | pct.1 Mocs2 [2]: 0.737 | pct.1 Mtdh [2]: 0.649 | pct.1 Ndufa3 [2]: 0.737 | pct.1 Ndufb2 [2]: 0.731 | pct.1 Nfe2l2 [2]: 0.465 | pct.1 Oat [2]: 0.653 | pct.1 Pabpc1 [2]: 0.766 | pct.1 Pdk1 [2]: 0.438 | pct.1 Prkd3 [2]: 0.682 | pct.1 Ptp4a2 [2]: 0.691 | pct.1 Rgn [2]: 0.899 | pct.1 Sdhc [2]: 0.76 | pct.1 Sdhd [2]: 0.775 | pct.1 Slc4a4 [2]: 0.609 | pct.1 Slc25a10 [2]: 0.701 | pct.1 Tgoln1 [2]: 0.756 | pct.1 Tmed5 [2]: 0.714 | pct.1 Tmem106b [2]: 0.727 | pct.1 Tob1 [2]: 0.649 | pct.1 Tsc22d3 [2]: 0.534 | pct.1 Usmg5 [2]: 0.59 | pct.1 Zfp91 [2]: 0.693 | pct.1 Atp2a2 (gene Atp2a2, time point A96): 0.64 | avg_logFC Atp2a2 (gene Atp2a2, time point A96 vs untreated (UT)): 0.2537 | pct.1 Csad (gene Csad, time point A96): 0.843 | avg_logFC Csad (gene Csad, time point A96 vs untreated (UT)): 0.2906 | pct.1 Eef1b2 (gene Eef1b2, time point A96): 0.743 | avg_logFC Eef1b2 (gene Eef1b2, time point A96 vs untreated (UT)): −0.2686 | pct.1 Etnppl (gene Etnppl, time point A96): 0.677 | avg_logFC Etnppl (gene Etnppl, time point A96 vs untreated (UT)): 0.407 | pct.1 Fos (gene Fos, time point A96): 0.619 | avg_logFC Fos (gene Fos, time point A96 vs untreated (UT)): 0.3272 | pct.1 Ftl1 (gene Ftl1, time point A96): 0.363 | avg_logFC Ftl1 (gene Ftl1, time point A96 vs untreated (UT)): −0.2798 | pct.1 Gm20594 (gene Gm20594, time point A96): 0.262 | avg_logFC Gm20594 (gene Gm20594, time point A96 vs untreated (UT)): −0.2928 | pct.1 Hes6 (gene Hes6, time point A96): 0.33 | avg_logFC Hes6 (gene Hes6, time point A96 vs untreated (UT)): −0.2781 | pct.1 Hsd3b3 (gene Hsd3b3, time point A96): 0.499 | avg_logFC Hsd3b3 (gene Hsd3b3, time point A96 vs untreated (UT)): −0.313 | pct.1 Hsd17b2 (gene Hsd17b2, time point A96): 0.614 | avg_logFC Hsd17b2 (gene Hsd17b2, time point A96 vs untreated (UT)): −0.3005 | pct.1 Hsd17b13 (gene Hsd17b13, time point A96): 0.755 | avg_logFC Hsd17b13 (gene Hsd17b13, time point A96 vs untreated (UT)): 0.2678 | pct.1 Ifi27 (gene Ifi27, time point A96): 0.325 | avg_logFC Ifi27 (gene Ifi27, time point A96 vs untreated (UT)): −0.2572 | pct.1 Ifitm3 (gene Ifitm3, time point A96): 0.742 | avg_logFC Ifitm3 (gene Ifitm3, time point A96 vs untreated (UT)): −0.2797 | pct.1 Krt8 (gene Krt8, time point A96): 0.47 | avg_logFC Krt8 (gene Krt8, time point A96 vs untreated (UT)): −0.265 | pct.1 Malat1 (gene Malat1, time point A96): 0.702 | avg_logFC Malat1 (gene Malat1, time point A96 vs untreated (UT)): −0.4647 | pct.1 Mup2 (gene Mup2, time point A96): 0.256 | avg_logFC Mup2 (gene Mup2, time point A96 vs untreated (UT)): −0.5008 | pct.1 Mup4 (gene Mup4, time point A96): 0.824 | avg_logFC Mup4 (gene Mup4, time point A96 vs untreated (UT)): −0.6934 | pct.1 Naa50 (gene Naa50, time point A96): 0.517 | avg_logFC Naa50 (gene Naa50, time point A96 vs untreated (UT)): 0.2658 | pct.1 Ndufb11 (gene Ndufb11, time point A96): 0.669 | avg_logFC Ndufb11 (gene Ndufb11, time point A96 vs untreated (UT)): −0.2832 | pct.1 Nme1 (gene Nme1, time point A96): 0.561 | avg_logFC Nme1 (gene Nme1, time point A96 vs untreated (UT)): −0.2724 | pct.1 Oat (gene Oat, time point A96): 0.653 | avg_logFC Oat (gene Oat, time point A96 vs untreated (UT)): 0.3439 | pct.1 Pnpla7 (gene Pnpla7, time point A96): 0.455 | avg_logFC Pnpla7 (gene Pnpla7, time point A96 vs untreated (UT)): −0.3397 | pct.1 Prdx4 (gene Prdx4, time point A96): 0.517 | avg_logFC Prdx4 (gene Prdx4, time point A96 vs untreated (UT)): −0.314 | pct.1 Psmb1 (gene Psmb1, time point A96): 0.703 | avg_logFC Psmb1 (gene Psmb1, time point A96 vs untreated (UT)): −0.2659 | pct.1 Psmb5 (gene Psmb5, time point A96): 0.241 | avg_logFC Psmb5 (gene Psmb5, time point A96 vs untreated (UT)): −0.2633 | pct.1 Rarres1 (gene Rarres1, time point A96): 0.274 | avg_logFC Rarres1 (gene Rarres1, time point A96 vs untreated (UT)): −0.2874 | pct.1 Rgn (gene Rgn, time point A96): 0.899 | avg_logFC Rgn (gene Rgn, time point A96 vs untreated (UT)): 0.2614 | pct.1 Rpl32 (gene Rpl32, time point A96): 0.689 | avg_logFC Rpl32 (gene Rpl32, time point A96 vs untreated (UT)): −0.2631 | pct.1 Rpl41 (gene Rpl41, time point A96): 0.274 | avg_logFC Rpl41 (gene Rpl41, time point A96 vs untreated (UT)): −0.2575 | pct.1 Rps8 (gene Rps8, time point A96): 0.378 | avg_logFC Rps8 (gene Rps8, time point A96 vs untreated (UT)): −0.2585 | pct.1 Rps15 (gene Rps15, time point A96): 0.468 | avg_logFC Rps15 (gene Rps15, time point A96 vs untreated (UT)): −0.2545 | pct.1 Selk (gene Selk, time point A96): 0.393 | avg_logFC Selk (gene Selk, time point A96 vs untreated (UT)): −0.2647 | pct.1 Serp1 (gene Serp1, time point A96): 0.671 | avg_logFC Serp1 (gene Serp1, time point A96 vs untreated (UT)): −0.2992 | pct.1 Ubb (gene Ubb, time point A96): 0.379 | avg_logFC Ubb (gene Ubb, time point A96 vs untreated (UT)): −0.2685 | pct.1 mmu-mir-6236 (gene mmu-mir-6236, time point A96): 0.801 | avg_logFC mmu-mir-6236 (gene mmu-mir-6236, time point A96 vs untreated (UT)): −0.6272 | pct.1 mt-Atp6 (gene mt-Atp6, time point A96): 0.43 | avg_logFC mt-Atp6 (gene mt-Atp6, time point A96 vs untreated (UT)): −0.3955 | avg_logFC 8430408G22Rik [3]: 0.2774 | avg_logFC Acot12 [3]: 0.2802 | avg_logFC Agpat6 [3]: 0.2753 | avg_logFC Aplp2 [3]: 0.2569 | avg_logFC Apoc2 [3]: 0.2872 | avg_logFC Apol7a [3]: 0.3029 | avg_logFC Aqp9 [3]: 0.2901 | avg_logFC Arl4a [3]: 0.2934 | avg_logFC Brap [3]: 0.2572 | avg_logFC Cd36 [3]: 0.2782 | avg_logFC Cebpb [3]: 0.2515 | avg_logFC Cede107 [3]: 0.2626 | avg_logFC Ces1e [3]: 0.3109 | avg_logFC Ces1f [3]: 0.2782 | avg_logFC Cisd1 [3]: 0.282 | avg_logFC Cpeb4 [3]: 0.2994 | avg_logFC Cpox [3]: 0.2562 | avg_logFC Crls1 [3]: 0.255 | avg_logFC Cxcl12 [3]: 0.3005 | avg_logFC D4Wsu53e [3]: 0.2925 | avg_logFC D17Wsu92e [3]: 0.258 | avg_logFC Dcxr [3]: 0.2522 | avg_logFC Dhdh [3]: 0.2593 | avg_logFC Ech1 [3]: 0.2509 | avg_logFC Ehhadh [3]: 0.2545 | avg_logFC Ephx1 [3]: 0.252 | avg_logFC Etfdh [3]: 0.2768 | avg_logFC Etnppl [3]: 0.411
